The values that follow come from patent publication US9005965B2, “Stem cells culture systems” (Hadasit Medical Research Services & Development Limited, priority 2004, dated 2015).

The test system of the test is cord-derived fibroblasts. Nature of the test: Propagation of cord-derived feeders with FGF2 supplementation. In kind it is cell-based, human. The following applies: medium supplemented with FGF2; FIG. 16. As to the method: Term umbilical cord tissue was minced as above, and the small pieces of tissue were plated in the fibroblast culture medium, as described above. To promote the adherence of the tissue pieces to the culture dish, flasks were incubated upright overnight. Cells emanating from the tissue pieces were propagated as above.

On to “FGF2: growth factor supplementing the medium”, for which the “proliferation of the fibroblasts” value was “could be augmented”.
